For assay [1], the target named is T1, Sortase B (Staphylococcus aureus) (UniProt Q2FZE3).
T1 sequence (whole entry): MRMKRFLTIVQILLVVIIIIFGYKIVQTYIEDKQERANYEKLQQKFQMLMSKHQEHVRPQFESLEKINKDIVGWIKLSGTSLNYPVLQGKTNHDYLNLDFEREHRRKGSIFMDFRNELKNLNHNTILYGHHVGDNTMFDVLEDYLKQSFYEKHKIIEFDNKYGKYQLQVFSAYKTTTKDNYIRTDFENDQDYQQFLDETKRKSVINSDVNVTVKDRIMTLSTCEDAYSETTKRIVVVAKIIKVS
The experiment in a line: Inhibitory activity against Sortase B.

Assay [2] deals with T2, Sortase A (Staphylococcus aureus) (UniProt Q9S446).
T2 sequence (whole entry): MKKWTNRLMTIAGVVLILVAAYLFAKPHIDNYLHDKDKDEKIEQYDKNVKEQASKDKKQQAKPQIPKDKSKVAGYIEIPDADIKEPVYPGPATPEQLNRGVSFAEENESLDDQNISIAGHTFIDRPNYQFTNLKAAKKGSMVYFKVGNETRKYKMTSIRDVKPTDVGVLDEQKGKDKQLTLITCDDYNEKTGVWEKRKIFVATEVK
The experiment in a line: Inhibitory activity against Sortase A.

The source made the active and inactive calls. The calls are words filed in the database; no cut-off is given here.

As to `C[C@@H](O)[C@@H](CS)NC(=O)[C@H](CCC(N)=O)NC(=O)[C@@H]1CCCN1C(=O)[C@H](CC(N)=O)NC(=O)OCc1ccccc1`, the result in assay [1] was Active.

With `CC(C)C[C@H](NC(=O)OCc1ccccc1)C(=O)N1CCC[C@H]1C(=O)N[C@@H](C)C(=O)N[C@H](CS)[C@@H](C)O`, the outcome in assay [2] was Active.

The record behind these values is ChEMBL document CHEMBL1140418, “Synthesis of (2R,3S) 3-amino-4-mercapto-2-butanol, a threonine analogue for covalent inhibition of sortases” (Bioorg Med Chem Lett, 2005).
